The values that follow come from US12655142B2 (Merck Patent GmbH, priority 2019, dated 2026).

Structures are written as SMILES. Where a name gives a salt, the structure may show the parent alone. Read-outs that look alike come from different tables or passages of the source. Where only a bound is given, the exact number is not on record here.

The target in data set [1] is T1, GIST430/654 cell line expressing mutated constitutively active cKIT receptor tyrosine kinase (Δ560-576 deletion and V654A point mutation) (Homo sapiens, UniProt P10721, DEL560-576/V654A).
T1 construct: endogenous in cells; host or cells: GIST430/654 cells
The experiment in a line: Cellular cKIT autophosphorylation (phospho-Y307-cKIT, Luminex bead assay) in GIST430/654 cells. It is filed as cell-based. As to conditions: compounds 45 min, read-out: GIST 430/654 IC50. Put shortly:
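Phospho-Y307 cKIT in lysates was measured on a Luminex bead assay, with total-cKIT capture overnight at 4 °C and phosphospecific plus PE secondary detection. Cells had 45 min exposure to a compound dilution series the day after plating: GIST430 (Δ560-576) or GIST430/654 (Δ560-576/V654A, grown with 100 nM imatinib). IC50 values are relative to 0.3% DMSO-treated cells.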

For the next data set, the target named is T2, c-Kit(V654A) (Homo sapiens, UniProt P10721, V654A).
T2 construct: recombinant human c-Kit, amino acids 544-end containing the V654A mutation; GST (N)
The experiment in a line: c-Kit(V654A) assay (33P-ATP filter binding kinase assay). The class given is biochemical. Particulars: recombinant human c-Kit aa 544-end V654A, ATP 200 μM. Put shortly: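 Radiometric filter-binding read-out: substrate 33P incorporation counted by scintillation after P30 filtermat washes in 75 mM phosphoric acid and methanol. Enzyme: N-GST recombinant human c-Kit aa 544-end carrying V654A.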

Data set [2] addresses T3, GIST430 cell line expressing constitutive active cKIT receptor tyrosine kinase (Δ560-576 deletion) (Homo sapiens, UniProt P10721, DEL560-576).
T3 construct: endogenous in cells; host or cells: GIST430 cells
The experiment in a line: Cellular cKIT autophosphorylation (phospho-Y307-cKIT, Luminex bead assay) in GIST430 cells. It is filed as cell-based. Here is the method: Assay Principle for Cellular Testing of cKIT Mutant Inhibitors
The GIST430 cell line expressing constitutive active cKIT receptor tyrosine kinase (Δ560-576 deletion) and the Imatinib resistant GIST430/654 cell line expressing mutated constitutively active cKIT receptor tyrosine kinase (Δ560-576 deletion and V654A point mutation) were employed for assessing cellular potency of compounds. Cellular activity of mutant cKIT was determined by the degree of cKIT autophosphorylation at tyrosine 307 using a Luminex-based bead assay. GIST430 cells were plated with 22,000 cells per well of a 96-well plate in 100 μl medium (85% IMDM/15% FCS) and GIST430/654 cells were plated with 25,000 cells per well of a 96-well plate in 100 μl medium (85% IMDM/15% FCS supplemented with 100 nM Imatinib). At the following day compounds were added in a serial dilution for 45 min. Then, cells were lysed with 90 μl lysis buffer (20 mM Hepes pH 7.5, 200 mM NaCl, 1.5 mM MgCl2×6H2O, 0.4 mM EDTA, 1% Triton-X-100, 1% Phosphatase-Inhibitor II, 20 mM β-Glycerolphosphat, 0.1% Protease-Inhibitor Cocktail III, 0.01% Benzonase) and lysates were cleared by centrifugation through a 96-well filter plate (0.65 μm). Samples were incubated with Luminex-beads which were coupled with an anti-total cKIT antibody overnight at 4° C. under gentle agitation. For detection of phospho-Y307-cKIT a phosphospecific antibody and a species-specific PE-labeled secondary antibody were added. The amount of phospho-Y307-cKIT was determined in a Luminex 200 instrument measuring 100 events per well within 60 seconds.
Counts from samples treated with compounds were calculated as percent of control from solvent treated (0.3% DMSO) samples. Dose-response curves were fitted and IC50 values were determined using Genedata Screener software.

A short description of data set [3]: Determination of Efflux-Ratio (ER) in Caco-2 cells. Particulars: human, Caco-2, pH 7.4. In general terms: Caco-2 monolayers are a common model of the intestinal barrier.
Method: Determination of Efflux-Ratio (ER) in Caco-2 Cells
The efflux ratio of the test compounds was determined in Caco-2 human epithelial colorectal adenocarcinoma cell line (TC7 clone) using calculation of apparent permeability (Papp). Cell monolayers were differentiated in vitro for 14 days before the experiment. Subsequently, the test compound (in HBSS pH 7.4 at 1 μM final concentration) was applied on the donor side while HBSS buffer (pH 7.4) was added to the receiver wells. […] The plate was then incubated in a 5% CO2 incubator (37° C., 100% humidity). At the end of the 2 hours incubation period, 50 μL sample was removed from both donor and receiver wells and diluted 1:1 with equal volumes of acetonitrile for LC-MS/MS analysis. The LC-MS/MS analysis used a one-point calibration method from a 1 μM standard solution diluted 1:1 with equal volume of acetonitrile (consistent to the test samples).
The data was used to calculate the apparent permeabilities of the compounds in both apical to basolateral (Papp,AB) and basolateral to apical (Papp,BA) directions at 1 μM concentration in duplicate. The Papp values were calculated from the concentrations in the donor and receiver compartments using the following formula:
Efflux ratio was calculated according to the following formula:
The mark [4] stands for this setting: cKIT autophosphorylation, GIST430 cells, compounds 45 min, read-out: GIST 430 IC50.

T1 sequence (P10721 with tags, fused parts or gaps DEL560-576/V654A): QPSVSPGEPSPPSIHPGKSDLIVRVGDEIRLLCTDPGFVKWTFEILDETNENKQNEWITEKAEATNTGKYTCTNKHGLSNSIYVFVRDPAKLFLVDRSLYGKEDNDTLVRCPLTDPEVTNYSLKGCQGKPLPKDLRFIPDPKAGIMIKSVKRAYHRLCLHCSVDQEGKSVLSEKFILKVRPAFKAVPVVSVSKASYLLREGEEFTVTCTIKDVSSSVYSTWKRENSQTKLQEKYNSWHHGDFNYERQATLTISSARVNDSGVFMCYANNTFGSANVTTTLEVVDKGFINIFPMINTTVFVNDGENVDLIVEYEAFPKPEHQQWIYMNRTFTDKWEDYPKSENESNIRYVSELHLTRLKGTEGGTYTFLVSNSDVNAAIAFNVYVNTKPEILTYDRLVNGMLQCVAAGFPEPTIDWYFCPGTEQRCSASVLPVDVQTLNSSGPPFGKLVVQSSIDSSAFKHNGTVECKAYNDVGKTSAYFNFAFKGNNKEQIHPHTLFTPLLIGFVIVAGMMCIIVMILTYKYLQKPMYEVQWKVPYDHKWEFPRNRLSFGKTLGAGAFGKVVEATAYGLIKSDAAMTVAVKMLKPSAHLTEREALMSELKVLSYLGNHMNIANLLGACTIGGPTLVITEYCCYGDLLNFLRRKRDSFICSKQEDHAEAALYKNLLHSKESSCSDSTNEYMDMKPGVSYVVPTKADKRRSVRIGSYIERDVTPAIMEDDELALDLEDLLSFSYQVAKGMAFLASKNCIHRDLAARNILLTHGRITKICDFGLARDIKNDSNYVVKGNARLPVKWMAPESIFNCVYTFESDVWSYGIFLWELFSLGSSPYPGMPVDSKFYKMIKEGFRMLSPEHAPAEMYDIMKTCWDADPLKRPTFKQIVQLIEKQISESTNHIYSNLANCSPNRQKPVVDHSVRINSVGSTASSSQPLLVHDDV
T3 sequence (P10721 with tags, fused parts or gaps DEL560-576): as the sequence (P10721 with tags, fused parts or gaps DEL560-576/V654A) above, with A612V counted along it
T2 sequence (P10721 544-976 V654A): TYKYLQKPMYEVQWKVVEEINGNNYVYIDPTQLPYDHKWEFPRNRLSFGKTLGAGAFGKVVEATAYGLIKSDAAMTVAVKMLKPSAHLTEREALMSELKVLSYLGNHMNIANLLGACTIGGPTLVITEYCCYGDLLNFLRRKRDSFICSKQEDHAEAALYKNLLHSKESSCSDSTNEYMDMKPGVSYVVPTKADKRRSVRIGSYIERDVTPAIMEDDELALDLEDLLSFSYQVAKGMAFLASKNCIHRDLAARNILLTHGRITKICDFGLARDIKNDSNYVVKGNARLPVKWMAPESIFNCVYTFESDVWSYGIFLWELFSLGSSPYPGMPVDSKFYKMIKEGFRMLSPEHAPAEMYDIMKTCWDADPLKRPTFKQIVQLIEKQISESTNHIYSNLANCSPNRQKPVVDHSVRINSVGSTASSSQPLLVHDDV

As for `Cn1cc(-c2ccc(CNc3cc(-c4cnc5cc(OCCN6CCn7nncc7C6)ccn45)ncn3)cc2)cn1` [A217, (6-{7-[2-(6,7-dihydro-4H-[1,2,3]triazolo[1,5-a]pyrazin-5-yl)-ethoxy]-imidazo[1,2-a]pyridin-3-yl}-pyrimidin-4-yl)-[4-(1-methyl-1H-pyrazol-4-yl)-benzyl]-amine], the IC50 in data set [1] amounted to 76 nM; at c-Kit(V654A), 7.8 nM; in data set [2] (setting [4]), 4.4e-09 M. For the same compound, the efflux ratio at 2 h, 1 μM in data set [3] was 15 to 50.
The like results for `Cc1nc(-c2ccc(CNc3cc(-c4cnc5cc(OCCN6CCC(=O)N(C)CC6)ccn45)ncn3)cc2)co1` [A261, 4-methyl-1-[2-({3-[6-({[4-(2-methyl-1,3-oxazol-4-yl)phenyl]methyl}amino)pyrimidin-4-yl]imidazo[1,2-a]pyridin-7-yl}oxy)ethyl]-1,4-diazepan-5-one] were, in that order, 54 nM, 2.1 nM, 1.4e-09 M and less than 15.
For the compound `Cc1cc(N2CC[C@H](F)C2)ncc1CNc1cc(-c2cnc3ccccn23)ncn1` [A155, [6-((S)-3-fluoro-pyrrolidin-1-yl)-4-methyl-pyridin-3-ylmethyl]-(6-imidazo[1,2-a]pyridin-3-yl-pyrimidin-4-yl)-amine], the IC50 stood at 30000 nM in data set [1], 92 nM on c-Kit(V654A) and 5.1e-08 M in data set [2] (setting [4]).
`COCCOc1ccn2c(-c3cc(NCc4ccc(-c5ccccc5)cc4)ncn3)cnc2c1` [A2, N-({[1,1′-biphenyl]-4-yl}methyl)-6-[7-(2-methoxyethoxy)imidazo[1,2-a]pyridin-3-yl]pyrimidin-4-amine]: the IC50 in data set [1] was determined as 160 nM; at c-Kit(V654A) it was 4.6 nM; in data set [2] (setting [4]), 7.7e-09 M. In addition, the efflux ratio at 2 h, 1 μM in data set [3] was less than 15.
On the same counts, the results for `CNC1CN(c2ccn3c(-c4cc(NCc5ccc(-c6cnn(C)c6)cc5)ncn4)cnc3c2)C1` [A268, N-{[4-(1-methyl-1H-pyrazol-4-yl)phenyl]methyl}-6-{7-[3-(methylamino)azetidin-1-yl]imidazo[1,2-a]pyridin-3-yl}pyrimidin-4-amine] are 140 nM, 11 nM, 1e-08 M and less than 15.
The like results for `CN1CCC(COc2ccn3c(-c4cc(NCc5ccc(-c6cnn(C)c6)cc5)ncn4)cnc3c2)CC1` [A62, {6-[7-(1-methyl-piperidin-4-ylmethoxy)-imidazo[1,2-a]pyridin-3-yl]-pyrimidin-4-yl}-[4-(1-methyl-1H-pyrazol-4-yl)-benzyl]-amine] were, in that order, 32 nM, 4.1 nM, 3.7e-09 M and less than 15.
On the same counts, the results for `Cc1nc(-c2ccc(CNc3cc(-c4cnc5cc(OCCN6CCn7nncc7C6)ccn45)ncn3)cc2)co1` [A264, N-{[4-(2-methyl-1,3-oxazol-4-yl)phenyl]methyl}-6-[7-(2-{4H,5H,6H,7H-[1,2,3]triazolo[1,5-a]pyrazin-5-yl}ethoxy)imidazo[1,2-a]pyridin-3-yl]pyrimidin-4-amine] are 36 nM, 1.6 nM, 1.1e-09 M and 15 to 50.
Turning to `COc1ccn2c(-c3ncnc(NCc4ccc(-c5cnn(C)c5)cc4)c3F)cnc2c1` [A97, 5-fluoro-6-{7-methoxyimidazo[1,2-a]pyridin-3-yl}-N-{[4-(1-methyl-1H-pyrazol-4-yl)phenyl]methyl}pyrimidin-4-amine], the IC50 in data set [1] turned out to be 230 nM; at c-Kit(V654A) it was 6.6 nM; in data set [2] (setting [4]) it was 8.8e-09 M.
With `Cn1ncc(-c2ccc(CNc3cc(-c4cnc5cc(OCC6CCN(C7COC7)CC6)ccn45)ncn3)cc2)n1` [A76, [4-(2-methyl-2H-[1,2,3]triazol-4-yl)-benzyl]-{6-[7-(1-oxetan-3-yl-piperidin-4-ylmethoxy)-imidazo[1,2-a]pyridin-3-yl]-pyrimidin-4-yl}-amine], the values for the IC50 (in data set [1]; on c-Kit(V654A); in data set [2] (setting [4])) were 52 nM, 7.8 nM and 2.1e-09 M, respectively. Besides, the efflux ratio at 2 h, 1 μM in data set [3] is less than 15.
In the case of `COCCOc1ccn2c(-c3cc(NCc4ccc(-c5cnn(C)c5)nc4)ncn3)cnc2c1` [A11, 6-[7-(2-methoxyethoxy)imidazo[1,2-a]pyridin-3-yl]-N-{[6-(1-methyl-1H-pyrazol-4-yl)pyridin-3-yl]methyl}pyrimidin-4-amine], the IC50 in data set [1] came to 170 nM; at c-Kit(V654A), 15 nM; in data set [2] (setting [4]) it was 7e-09 M.
On the same counts, the results for `c1ccn2c(-c3cc(NCc4ccc(-n5cccn5)cc4)ncn3)cnc2c1` [A9, (6-Imidazo[1,2-a]23yridine-3-yl-pyrimidin-4-yl)-(4-pyrazol-1-yl-benzyl)-amine] are 190 nM, 2.2 nM and 2.4e-09 M.
Regarding `CO[C@H]1CCN(c2ccc(CNc3cc(-c4cnc5ccccn45)ncn3)cn2)C1` [A151, 6-{imidazo[1,2-a]pyridin-3-yl}-N-({6-[(3S)-3-methoxypyrrolidin-1-yl]pyridin-3-yl}methyl)pyrimidin-4-amine], the IC50 in data set [1] is 300 nM; at c-Kit(V654A), 15 nM; in data set [2] (setting [4]), 9.9e-09 M. Also, in data set [3], the efflux ratio at 2 h, 1 μM was less than 15.
On the same counts, the results for `Cn1cc(-c2ccc(CNc3cc(-c4cnc5cc(OCCN6CCOCC6)ccn45)ncn3)cc2)cn1` [A56, [4-(1-methyl-1H-pyrazol-4-yl)-benzyl]-{6-[7-(2-morpholin-4-yl-ethoxy)-imidazo[1,2-a]pyridin-3-yl]-pyrimidin-4-yl}-amine] are 50 nM, 7.3 nM, 3.9e-09 M and less than 15.
As for `COc1ccn2c(-c3cc(NCc4ccc(-c5cccnc5)cc4)ncn3)cnc2c1` [A6, 6-{7-methoxyimidazo[1,2-a]23yridine-3-yl}-N-{[4-(23yridine-3-yl)phenyl]methyl}pyrimidin-4-amine], the IC50 in data set [1] is 350 nM; at c-Kit(V654A), 6.4 nM; in data set [2] (setting [4]) it was 2e-08 M.
In the case of `COCCOc1ccn2c(-c3cc(NCc4ccc(-c5cccnc5)cc4)ncn3)cnc2c1` [A5, 6-[7-(2-methoxyethoxy)imidazo[1,2-a]23yridine-3-yl]-N-{[4-(23yridine-3-yl)phenyl]methyl}pyrimidin-4-amine], the IC50 worked out at 170 nM in data set [1], 8.2 nM on c-Kit(V654A) and 5.3e-09 M in data set [2] (setting [4]).
The like results for `COCCOc1ccn2c(-c3cc(NCc4ccc(-c5ccn(C)n5)cc4)ncn3)cnc2c1` [A7, 6-[7-(2-methoxyethoxy)imidazo[1,2-a]pyridin-3-yl]-N-{[4-(1-methyl-1H-pyrazol-3-yl)phenyl]methyl}pyrimidin-4-amine] were, in that order, 300 nM, 4.7 nM and 6.1e-09 M.
With `Cn1cc(-c2ccc(CNc3cc(-c4cnc5cc(OCCCN6CCCC6)ccn45)ncn3)cc2)cn1` [A75 hydrochloride, [4-(1-methyl-1H-pyrazol-4-yl)-benzyl]-{6-[7-(3-pyrrolidin-1-yl-propoxy)-imidazo[1,2-a]pyridin-3-yl]-pyrimidin-4-yl}-amine hydrochloride], the IC50 on c-Kit(V654A) was 5.8 nM; in data set [2] (cell line not specified (GIST), read-out: IC50 [M] GIST), 2.1e-09 M.

The efflux ratio is the permeability from basolateral to apical divided by that in the opposite direction, in the common usage.
